What all share (type): cell-based
One assay relates to MOLT-4. Nature of the assay: Cell viability assay (MTS) in MOLT-4 cells. Particulars: Homo sapiens. The method, then:
(§1) Acute lymphoblastic leukemia cells (MOLT-4 and RS4; 11) were incubated with increasing concentrations of Bcl-xL degraders for 48 h. Cell viability was measured by tetrazolium-based MTS assay.

The test system of a further assay is RS4; 11. Description: Cell viability assay (MTS) in RS4; 11 cells. The settings on record: Homo sapiens. The protocol:
as §1

The test system of the next assay is human platelets. Nature of the assay: Platelet toxicity assay (MTS viability). Particulars: for IC50: Homo sapiens, Platelet, 48 h, human platelets. The protocol: Platelet-rich plasma (PRP) was purchased from Life South Community Blood Centers (Gainesville, FL, USA). PRP was transferred into a 50 mL tube containing 5 mL of the acid citrate buffer (Cat. No. sc-214744, Santa Cruz Biotechnology). To prevent clotting, prostaglandin E1 (PGE1, Cat. No. sc-201223A, Santa Cruz Biotechnology, Dallas, TX, USA) and apyrase (Cat. No. A6237, Sigma-Aldrich, St. Louis, MO, USA) were added to final concentrations of […] and 0.2 U/mL, respectively. After gently mixing the solution, platelets were pelleted by centrifugation at 1200 g for 10 min without break. Pelleted platelets were gently washed without disturbing platelets using 2 mL of HEPES Tyrode's buffer (Cat. No. PY-921WB, Boston BioProducts, Ashland, MA, USA) containing […] PGE1 and 0.2 U/mL apyrase. After washing, pellets were gently suspended in 10 mL of HEPES Tyrode's buffer containing […] PGE1 and 0.2 U/mL apyrase. Then, the platelet number was counted using a HEMAVET 950FS hematology analyzer (Drew Scientific, Inc., Oxford, CT, USA). For viability assays, the platelet number was adjusted to 2×10^8/mL in HEPES Tyrode's buffer containing […] PGE1 and 0.2 U/mL apyrase. Each treatment was given in 2 mL of the platelet suspension in 15 mL polypropylene tubes. The tubes were placed on a rotating platform at room temperature, and the viability of platelets was measured after 48 h treatment by using the MTS reagent (Cat. No. G1111, Promega, Madison, WI, USA). The data were analyzed by the GraphPad Prism 7 software for the calculation of IC50 values.

Setting [1] is: MOLT-4, Table 3, 48 h, mean of two independent experiments in triplicates, read-out: MOLT-4 48 h IC50.
[2] abbreviates: RS4-11, Table 4, 48 h, read-out: RS4 48 h IC50.
Where [3] appears, read: Table 3, mean of two independent experiments in triplicates, read-out: Platelets 48 h IC50.
Where [4] appears, read: Table 4, read-out: Platelets 48 h IC50.
Where [5] appears, read: Table 3, ratio of platelet IC50 to MOLT-4 IC50.
[6] abbreviates: MOLT-4, Table 2, 48 hr, MTS, read-out: Anti-Cancer Activity IC50 (48 hr) MOLT-4.
[7] abbreviates: RS4-11, Table 2, 48 hr, MTS, read-out: Anti-Cancer Activity IC50 (48 hr) RS4, 11.
Where [8] appears, read: MOLT-4, 48 h, read-out: Anti-Cancer Activity IC50 (48 hr) MOLT-4.
Where [9] appears, read: RS4-11, 48 h, read-out: Anti-Cancer Activity IC50 (48 hr) RS4, 11.
[10] abbreviates: MOLT-4, Table 2A, 48 hr, MTS, read-out: Anti-Cancer Activity IC50 (48 hr) MOLT-4.
The mark [11] stands for this setting: RS4-11, Table 2A, 48 hr, MTS, read-out: Anti-Cancer Activity IC50 (48 hr) RS4, 11.

Consider twelve compounds from US20250154141A1 (University of Florida Research Foundation, Incorporated, priority 2021, published 2025).

One may read the IC50 as the concentration that gives 50% inhibition.

Where two headings read alike, the source gives them in different places.

For the compound `CC1(C)CCC(c2ccc(Cl)cc2)=C(CN2CCN(c3ccc(C(=O)NS(=O)(=O)c4ccc(N[C@H](CCN5CCOCC5)CSc5ccccc5)c(S(=O)(=O)C(F)(F)F)c4)cc3)CC2)C1` [ABT-263, navitoclax, reference compound], the half-maximal inhibitory concentration (IC50) with MOLT-4 (setting [1]) was determined as 220 nM; in the assay with RS4; 11 (setting [2]), 38 nM; with human platelets (setting [3]), 312 nM; in the assay on human platelets (setting [4]) it was 260 nM; in the assay with human platelets (Table 6, 4 th time, read-out: Platelets 4 th time 48 h IC50) it was 223 nM. The “Platelets/MOLT-4 IC50 Fold change” value with human platelets (setting [5]) is recorded as 1.4; in the assay on human platelets (Table 6, ratio of platelet IC50 to MOLT-4 IC50), 1.

In the case of `Cc1ncsc1-c1ccc([C@H](C)NC(=O)[C@@H]2C[C@@H](O)CN2C(=O)[C@@H](NC(=O)CCCCCNC(=O)c2ccc(N3CCN(CC4(C)CCC(c5ccc(Cl)cc5)=C(CN5CCN(c6ccc(C(=O)NS(=O)(=O)c7ccc(N[C@H](CCN8CCOCC8)CSc8ccccc8)c(S(=O)(=O)C(F)(F)F)c7)cc6)CC5)C4)CC3)nc2)C(C)(C)C)cc1` (stereo partly drawn) [Compound 3], the concentration for half-maximal inhibition (IC50) in the assay with MOLT-4 (setting [6]) was under 20 nM; in the assay on MOLT-4 (MOLT-4, Table 4, 48 h, read-out: MOLT-4 48 h IC50), 9.6 nM; in the assay with RS4; 11 (setting [7]), 20 to 100 nM; in the assay with RS4; 11 (setting [2]) it was 44.9 nM; with human platelets (setting [4]) it was 4900 nM. In addition, the “PLT/MOLT-4 IC50 Fold Change” value in the assay with human platelets (Table 4, ratio of platelet IC50 to MOLT-4 IC50) is recorded as 510.

In the case of `Cc1ncsc1-c1ccc([C@H](C)NC(=O)[C@@H]2C[C@@H](O)CN2C(=O)[C@@H](NC(=O)CCCCCNC(=O)c2ccc(N3CCN(CC4(C)CCC(c5ccc(Cl)cc5)=C(CN5CCN(c6ccc(C(=O)NS(=O)(=O)c7ccc(N[C@H](CCN8CCOCC8)CSc8ccccc8)c(S(=O)(=O)C(F)(F)F)c7)cc6)CC5)C4)CC3)cc2)C(C)(C)C)cc1` (stereo partly drawn) [Compound 12, (2S,4R)-1-((2S)-2-(6-(4-(4-((4′-chloro-4-methyl-6-((4-(4-(((4-(((R)-4-morpholino-1-(phenylthio)butan-2-yl)amino)-3-((trifluoromethyl)sulfonyl)phenyl)sulfonyl)carbamoyl)phenyl)piperazin-1-yl)methyl)-2,3,4,5-tetrahydro-[1,1′-biphenyl]-4-yl)methyl)piperazin-1-yl)benzamido)hexanamido)-3,3-dimethylbutanoyl)-4-hydroxy-N—((S)-1-(4-(4-methylthiazol-5-yl)phenyl)ethyl)pyrrolidine-2-carboxamide], the IC50 in the assay with MOLT-4 (setting [6]) is under 20 nM; with MOLT-4 (setting [1]), 17.5 nM; in the assay on RS4; 11 (setting [7]) it was 20 to 100 nM; with human platelets (setting [3]), 2160 nM. In the assay on human platelets (setting [5]), the “Platelets/MOLT-4 IC50 Fold change” value was determined as 123.

Regarding `Cc1ncsc1-c1ccc([C@H](C)NC(=O)[C@@H]2C[C@@H](O)CN2C(=O)[C@@H](NC(=O)CN(C)CCCNC(=O)c2ccc(N3CCN(C[C@]4(C)CCC(c5ccc(Cl)cc5)=C(CN5CCN(c6ccc(C(=O)NS(=O)(=O)c7ccc(N[C@H](CCN8CCCOCC8)CSc8ccccc8)c(S(=O)(=O)C(F)(F)F)c7)cc6)CC5)C4)CC3)nn2)C(C)(C)C)cc1` [Compound 112], the half-maximal inhibitory concentration (IC50) in the assay on MOLT-4 (setting [8]) was 20 to 100 nM; in the assay with RS4; 11 (setting [9]), under 20 nM.

With `Cc1ncsc1-c1ccc([C@H](C)NC(=O)[C@@H]2C[C@@H](O)CN2C(=O)[C@@H](NC(=O)CN2CCN(CCNC(=O)c3ccc(CN4CCN(C[C@]5(C)CCC(c6ccc(Cl)cc6)=C(CN6CCN(c7ccc(C(=O)NS(=O)(=O)c8ccc(N[C@H](CCN9CCCOCC9)CSc9ccccc9)c(S(=O)(=O)C(F)(F)F)c8)cc7)CC6)C5)CC4)nc3)CC2)C(C)(C)C)cc1` [Compound 114], the 50% inhibitory concentration (IC50) in the assay on MOLT-4 (setting [10]) and in the assay on RS4; 11 (setting [11]) was under 20 nM each time.

Take `Cc1ncsc1-c1ccc([C@H](C)NC(=O)[C@@H]2C[C@@H](O)CN2C(=O)[C@@H](NC(=O)CN2CCN(C(=O)CC(=O)N3CCN(C[C@]4(C)CCC(c5ccc(Cl)cc5)=C(CN5CCN(c6ccc(C(=O)NS(=O)(=O)c7ccc(N[C@H](CCN8CCCOCC8)CSc8ccccc8)c(S(=O)(=O)C(F)(F)F)c7)cc6)CC5)C4)CC3)CC2)C(C)(C)C)cc1` [Compound 115]: the IC50 in the assay with MOLT-4 (setting [8]) and with RS4; 11 (setting [9]) was under 20 nM in each case.

Turning to `Cc1ncsc1-c1ccc([C@H](C)NC(=O)[C@@H]2C[C@@H](O)CN2C(=O)[C@@H](NC(=O)CCCCC(=O)N2CCC(C3CCN(C[C@]4(C)CCC(c5ccc(Cl)cc5)=C(CN5CCN(c6ccc(C(=O)NS(=O)(=O)c7ccc(N[C@H](CCN8CCCOCC8)CSc8ccccc8)c(S(=O)(=O)C(F)(F)F)c7)cc6)CC5)C4)CC3)CC2)C(C)(C)C)cc1` [Compound 116], the half-inhibitory concentration (IC50) in the assay with MOLT-4 (setting [10]) and in the assay on RS4; 11 (setting [11]) was under 20 nM in each case.

On to `Cc1ncsc1-c1ccc([C@H](C)NC(=O)[C@@H]2C[C@@H](O)CN2C(=O)[C@@H](NC(=O)CN(C)CCC(=O)N2CCC(C3CCN(C[C@]4(C)CCC(c5ccc(Cl)cc5)=C(CN5CCN(c6ccc(C(=O)NS(=O)(=O)c7ccc(N[C@H](CCN8CCCOCC8)CSc8ccccc8)c(S(=O)(=O)C(F)(F)F)c7)cc6)CC5)C4)CC3)CC2)C(C)(C)C)cc1` [Compound 117], for which the IC50 in the assay with MOLT-4 (setting [10]) is 20 to 100 nM; in the assay on RS4; 11 (setting [11]) it was under 20 nM.

In the case of `Cc1ncsc1-c1ccc([C@H](C)NC(=O)[C@@H]2C[C@@H](O)CN2C(=O)[C@@H](NC(=O)CN(C)CC(=O)N2CCC(C3CCN(C[C@]4(C)CCC(c5ccc(Cl)cc5)=C(CN5CCN(c6ccc(C(=O)NS(=O)(=O)c7ccc(N[C@H](CCN8CCCOCC8)CSc8ccccc8)c(S(=O)(=O)C(F)(F)F)c7)cc6)CC5)C4)CC3)CC2)C(C)(C)C)cc1` [Compound 118], the half-inhibitory concentration (IC50) in the assay with MOLT-4 (setting [10]) and in the assay on RS4; 11 (setting [11]) was under 20 nM each time.

Turning to `Cc1ncsc1-c1ccc([C@H](C)NC(=O)[C@@H]2C[C@@H](O)CN2C(=O)[C@@H](NC(=O)CCCCC(=O)N2CCN(C3CCN(C[C@]4(C)CCC(c5ccc(Cl)cc5)=C(CN5CCN(c6ccc(C(=O)NS(=O)(=O)c7ccc(N[C@H](CCN8CCCOCC8)CSc8ccccc8)c(S(=O)(=O)C(F)(F)F)c7)cc6)CC5)C4)CC3)CC2)C(C)(C)C)cc1` [Compound 119], the 50% inhibitory concentration (IC50) with MOLT-4 (setting [10]) and in the assay on RS4; 11 (setting [11]) was under 20 nM in each case.

Turning to `Cc1ncsc1-c1ccc([C@H](C)NC(=O)[C@@H]2C[C@@H](O)CN2C(=O)[C@@H](NC(=O)CCCCC(=O)N2CCC(N3CCN(C[C@]4(C)CCC(c5ccc(Cl)cc5)=C(CN5CCN(c6ccc(C(=O)NS(=O)(=O)c7ccc(N[C@H](CCN8CCCOCC8)CSc8ccccc8)c(S(=O)(=O)C(F)(F)F)c7)cc6)CC5)C4)CC3)CC2)C(C)(C)C)cc1` [Compound 120], the IC50 in the assay with MOLT-4 (setting [10]) and in the assay on RS4; 11 (setting [11]) was under 20 nM each time.

Turning to `Cc1ncsc1-c1ccc([C@H](C)NC(=O)[C@@H]2C[C@@H](O)CN2C(=O)[C@@H](NC(=O)CCCCCCC(=O)N2C(C)CN(C[C@]3(C)CCC(c4ccc(Cl)cc4)=C(CN4CCN(c5ccc(C(=O)NS(=O)(=O)c6ccc(N[C@H](CCN7CCCOCC7)CSc7ccccc7)c(S(=O)(=O)C(F)(F)F)c6)cc5)CC4)C3)CC2C)C(C)(C)C)cc1` (stereo partly drawn) [compound 83], the IC50 with MOLT-4 (setting [6]) lay within 20 to 100 nM; with RS4; 11 (setting [7]) it was 100 to 500 nM.
